From patent US20110098184A1, “Competitve differntial screeing” (priority 2004, published 2011)
Bridge positions count the residues as written; N and C are the ends. Peptide text beside a SMILES is read from it.

Target: human stratum cornium chymotrypsin (hSCC) (Homo sapiens, UniProt P49862)
Assay: Mass spectrometric screening of a protein library against immobilized hSCC in the presence of competitor Ecotin
Assay type: binding
Conditions: library 10 nM per member, competitor Ecotin at 1 nM, 100 nM, 4 hrs incubation, biotinylated hSCC on streptavidin beads
Description: In this Example, mass spectrometric screening experiments are described. FIGS. 10-13 provide data and calculations obtained during these experiments. Inhibitors of human stratum cornium chymotrypsin (hSCC) were screened from a protein library made of BBI-loop-BLA (See e.g., U.S. patent application Ser. Nos. 10/984,270 and 10/984,410; and PCT Appln. Nos. US04/36976, US04/36979; and US04/36980), all of which are incorporated by reference herein). The protein library consisted of a protein backbone in which three non-consecutive positions were randomized (cysteine constrained) at the N-terminus of the protein. HSCC (screening target) (Swissprot, accession number P49862) was biotinylated and immobilized on streptavidin beads (MagnaBind Beads; Pierce).
HSCC was incubated with a protein library at 10 nM per library member in the presence of a competitor (Ecotin; Sigma) added at 1 nM, 10 nM, and 100 nM concentrations. Following incubation (4 hrs), the beads were washed with incubation buffer to remove nonspecific binders and specific binders were eluted with an elution solution.
The recovered binders were concentrated (vacuum concentration), resuspended in a digestion buffer, reduced, alkylated, and digested with proteolytic enzyme (Lys-c; Roche). The resulting protein digests were analyzed by capillary LC-ESI-MS/MS. […]

Chain of human stratum cornium chymotrypsin (hSCC) (P49862 30-253): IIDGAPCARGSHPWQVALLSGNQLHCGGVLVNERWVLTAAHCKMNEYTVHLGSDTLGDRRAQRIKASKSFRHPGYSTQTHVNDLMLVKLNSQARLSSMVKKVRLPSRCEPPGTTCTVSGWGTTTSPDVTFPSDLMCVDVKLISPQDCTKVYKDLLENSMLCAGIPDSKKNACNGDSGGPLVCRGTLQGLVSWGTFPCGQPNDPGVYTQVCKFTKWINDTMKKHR

binder observed after elution (capillary LC-ESI-MS/MS): observed under all conditions
SMILES: C[C@@H](O)[C@@H]1NC(=O)[C@@H](NC(=O)[C@@H]2CCCN2)CSSC[C@@H](C(=O)N[C@@H](Cc2ccc(O)cc2)C(=O)NCC(=O)NCC(=O)NCC(=O)N[C@@H](CCCCN)C(=O)O)NC(=O)[C@H](CCC(N)=O)NC(=O)[C@@H]2CCCN2C(=O)[C@@H]2CCCN2C(=O)[C@H](Cc2ccc(O)cc2)NC(=O)[C@H](CO)NC(=O)[C@H](Cc2ccccc2)NC1=O [pj02] (H-PCTFSYPPQCYGGGK-OH; disulfide 2-10 (inferred); N-terminus and C-terminus assumed)
